Assay in all cases: Greenhouse test, pre-emergence treatment
One assay concerns AMARE. In kind it is in vivo, Amaranthus retroflexus. The note with it: for pest or weed control at 250 g/ha / pest or weed control at 125 g/ha / pest or weed control at 500 g/ha: Amaranthus retroflexus; for pest or weed control at 250 g/ha: read-out: herbicidal activity, 250 g/ha; for pest or weed control at 125 g/ha: read-out: herbicidal activity, 125 g/ha; for pest or weed control at 500 g/ha: read-out: herbicidal activity, 500 g/ha. The text has this:
(§1) The seeds of the test plants were sown separately for each species. For the pre-emergence treatment, the active ingredients, which had been suspended or emulsified in water, were applied directly after sowing by means of finely distributing nozzles. The containers were irrigated gently to promote germination and growth and subsequently covered with transparent plastic hoods until the plants had rooted. This cover caused uniform germination of the test plants, unless this had been impaired by the active ingredients. Depending on the species, the plants were kept at 10-25° C. or 20-35° C., respectively. The test period extended over 2 to 4 weeks. During this time, the plants were tended, and their response to the individual treatments was evaluated. Evaluation was carried out using a scale from 0 to 100. 100 means no emergence of the plants, or complete destruction of at least the aerial moieties, and 0 means no damage, or normal course of growth. […] The plants used in the greenhouse experiments were of the following species: [table]

A further assay deals with ECHCG. In kind it is in vivo, Echinocloa crus-galli.
Description: as §1

The test system of a further assay is ABUTH. The format is in vivo, Abutilon theophrasti.
Description: as §1

A further assay has as its system SETFA. The format is in vivo, Setaria faberi.
Description: as §1

We go through 31 molecules from patent US9822105B2, “Diaminotriazine compounds as herbicides” (BASF SE, priority 2014, dated 2017).

For `CC1Oc2ccc(Cl)c(Nc3nc(N)nc(C(C)(C)F)n3)c2O1` (racemic) [Example 12], the herbicidal activity result in the assay on AMARE (250 g/ha), in the assay on ECHCG (250 g/ha) and in the assay on ABUTH (250 g/ha) was “very good (a very good herbicidal activity is given at values of at least 85)” throughout.

For `CCC(C)c1nc(N)nc(Nc2c(F)ccc3c2OCO3)n1` (racemic) [Example 16], the herbicidal activity result in the assay with AMARE (125 g/ha) is on record as “very good (a very good herbicidal activity is given at values of at least 85)”; in the assay with ABUTH (125 g/ha) it was “good (a good herbicidal activity is given at values of at least 70)”.

Consider `CC1CCCN1c1nc(N)nc(Nc2c(F)ccc3c2OCO3)n1` (racemic) [Example 19], for which, in the assay on AMARE (500 g/ha), the herbicidal activity result is given as “very good (a very good herbicidal activity is given at values of at least 85)”.

Take `COC(C)c1nc(N)nc(Nc2c(F)ccc3c2OCO3)n1` (racemic) [Example 32]: the herbicidal activity entry in the assay with AMARE (125 g/ha) and with ABUTH (125 g/ha) was “good (a good herbicidal activity is given at values of at least 70)” throughout.

`CCC(F)c1nc(N)nc(Nc2c(F)ccc3c2OCO3)n1` (racemic) [Example 33]: the herbicidal activity entry with AMARE (125 g/ha) was “very good (a very good herbicidal activity is given at values of at least 85)”.

For the molecule `CC1Oc2ccc(F)c(Nc3nc(N)nc(C(C)(C)F)n3)c2O1` (single isomer, unassigned) [Example 7], the herbicidal activity entry with SETFA (250 g/ha, SETFA) was “very good (a very good herbicidal activity is given at values of at least 85)”; with AMARE (250 g/ha) it was “very good (a very good herbicidal activity is given at values of at least 85)”; in the assay with ABUTH (250 g/ha), “very good (a very good herbicidal activity is given at values of at least 85)”.

Take `CC1Oc2ccc(F)c(Nc3nc(N)nc(C(C)(C)F)n3)c2O1` (single isomer, unassigned) [Example 8]: the herbicidal activity entry with SETFA (250 g/ha, SETFA) was “very good (a very good herbicidal activity is given at values of at least 85)”; in the assay with AMARE (250 g/ha) it was “very good (a very good herbicidal activity is given at values of at least 85)”; in the assay with ABUTH (250 g/ha) it was “very good (a very good herbicidal activity is given at values of at least 85)”.

For `CC1Oc2ccc(F)c(Nc3nc(N)nc(C(C)(C)F)n3)c2O1` (single isomer, unassigned) [Example 35], in the assay on ECHCG (250 g/ha), the herbicidal activity entry was “very good (a very good herbicidal activity is given at values of at least 85)”.

Turning to `CC(C)(F)c1nc(N)nc(Nc2c(Br)c(Br)cc3c2OCO3)n1` [Example 4], the herbicidal activity result in the assay with ABUTH (125 g/ha) is given as “good (a good herbicidal activity is given at values of at least 70)”.

For the molecule `Nc1nc(Nc2c(F)ccc3c2OCO3)nc(C2(Cl)CCC2)n1` [Example 5], the herbicidal activity entry in the assay on SETFA (250 g/ha, SETFA) is given as “very good (a very good herbicidal activity is given at values of at least 85)”; in the assay with ECHCG (250 g/ha), “very good (a very good herbicidal activity is given at values of at least 85)”. Besides, in the assay with AMARE, the pest or weed control at 250 g/ha is at least 85%.

`CC1(C)Oc2ccc(Cl)c(Nc3nc(N)nc(C(C)(C)F)n3)c2O1` [Example 11]: the herbicidal activity result with AMARE (250 g/ha), in the assay on ECHCG (250 g/ha) and with ABUTH (250 g/ha) was “very good (a very good herbicidal activity is given at values of at least 85)” in each case.

Take `CC1(C)Oc2ccc(F)c(Nc3nc(N)nc(C(C)(C)F)n3)c2O1` [Example 14]: the herbicidal activity entry with AMARE (250 g/ha), in the assay with ECHCG (250 g/ha) and in the assay with ABUTH (250 g/ha) was “very good (a very good herbicidal activity is given at values of at least 85)” each time.

For the molecule `Nc1nc(Nc2c(F)ccc3c2OCO3)nc(C2(F)CCCC2)n1` [Example 15], the herbicidal activity result with SETFA (250 g/ha, SETFA) is “very good (a very good herbicidal activity is given at values of at least 85)”; in the assay on AMARE (250 g/ha), “very good (a very good herbicidal activity is given at values of at least 85)”; with ABUTH (250 g/ha) it was “very good (a very good herbicidal activity is given at values of at least 85)”.

Consider `CC(C)c1nc(N)nc(Nc2c(F)ccc3c2OCO3)n1` [Example 17], for which the pest or weed control at 125 g/ha in the assay with AMARE was at least 85%. Also, in the assay with ABUTH (125 g/ha), the herbicidal activity entry is “good (a good herbicidal activity is given at values of at least 70)”.

In the case of `Nc1nc(Nc2c(F)ccc3c2OCO3)nc(N2CCCC2)n1` [Example 20], the pest or weed control at 500 g/ha in the assay with AMARE was at least 85%.

In the case of `COC1(c2nc(N)nc(Nc3c(F)ccc4c3OCO4)n2)CCCCC1` [Example 23], the herbicidal activity entry is “good (a good herbicidal activity is given at values of at least 70)” with SETFA (125 g/ha, SETFA) and “good (a good herbicidal activity is given at values of at least 70)” in the assay on ECHCG (125 g/ha). Moreover, the pest or weed control at 125 g/ha in the assay with AMARE was at least 85%.

Take `CC(C)(C)Cc1nc(N)nc(Nc2c(F)ccc3c2OCO3)n1` [Example 24]: the herbicidal activity result in the assay on AMARE (125 g/ha), in the assay with ECHCG (125 g/ha) and in the assay with ABUTH (125 g/ha) was “very good (a very good herbicidal activity is given at values of at least 85)” each time.

Turning to `CON(C)c1nc(N)nc(Nc2c(F)ccc3c2OCO3)n1` [Example 25], the herbicidal activity entry in the assay with AMARE (500 g/ha) is listed as “very good (a very good herbicidal activity is given at values of at least 85)”.

For `CC(C)Cc1nc(N)nc(Nc2c(F)ccc3c2OCO3)n1` [Example 26], the herbicidal activity result is given as “good (a good herbicidal activity is given at values of at least 70)” in the assay with SETFA (125 g/ha, SETFA); “very good (a very good herbicidal activity is given at values of at least 85)” in the assay on AMARE (125 g/ha); “good (a good herbicidal activity is given at values of at least 70)” with ECHCG (125 g/ha).

For the molecule `Nc1nc(Nc2c(F)ccc3c2OCO3)nc(C2CCCCC2)n1` [Example 27], the herbicidal activity result in the assay on SETFA (125 g/ha, SETFA) is “good (a good herbicidal activity is given at values of at least 70)”. Further, in the assay on AMARE, the pest or weed control at 125 g/ha was at least 85%.

For the molecule `Nc1nc(Nc2c(F)ccc3c2OCO3)nc(C2CCCC2)n1` [Example 28], the pest or weed control at 125 g/ha in the assay with AMARE was at least 85%. Moreover, in the assay on ECHCG (125 g/ha), the herbicidal activity result was “good (a good herbicidal activity is given at values of at least 70)”.

Regarding `CC(C)(C)c1nc(N)nc(Nc2c(F)ccc3c2OCO3)n1` [Example 29], the pest or weed control at 125 g/ha in the assay with AMARE is at least 85%. Besides, the herbicidal activity entry in the assay with ECHCG (125 g/ha) and in the assay on ABUTH (125 g/ha) was “very good (a very good herbicidal activity is given at values of at least 85)” each time.

Turning to `CC(C)(F)c1nc(N)nc(Nc2c(Cl)c(Cl)cc3c2OCO3)n1` [Example 31], the herbicidal activity result in the assay with SETFA (125 g/ha, STEFTA) was “very good (a very good herbicidal activity is given at values of at least 85)”; in the assay with AMARE (125 g/ha) it was “very good (a very good herbicidal activity is given at values of at least 85)”; in the assay on ECHCG (125 g/ha) it was “good (a good herbicidal activity is given at values of at least 70)”.

For `Cn1c(=O)oc2c(Nc3nc(N)nc(C(C)(C)F)n3)c(F)ccc21` [Example 38], the herbicidal activity result with AMARE (500 g/ha) was “very good (a very good herbicidal activity is given at values of at least 85)”.

Turning to `CC(C)(F)c1nc(N)nc(Nc2c(F)ccc3ncoc23)n1` [Example 39], the pest or weed control at 250 g/ha in the assay with AMARE was at least 85%. The herbicidal activity entry with ABUTH (250 g/ha) was “very good (a very good herbicidal activity is given at values of at least 85)”.

In the case of `CC(C)(F)c1nc(N)nc(Nc2c(F)ccc3c2CCC3)n1` [Example 41], the pest or weed control at 500 g/ha with AMARE was at least 85%.

`CC(C)(F)c1nc(N)nc(Nc2c(Cl)ccc3c2OCCO3)n1` [Example 42]: the pest or weed control at 125 g/ha with AMARE was at least 85%.

Take `CC(C)(F)c1nc(N)nc(Nc2c(F)ccc3c2OCCO3)n1` [Example 43]: in the assay on AMARE, the pest or weed control at 500 g/ha is at least 85%.

`CC(C)(F)c1nc(N)nc(Nc2c(Cl)ccc3c2OC=CO3)n1` [Example 44]: the pest or weed control at 500 g/ha in the assay with AMARE is at least 85%. In addition, the herbicidal activity result in the assay on ECHCG (500 g/ha) is on record as “very good (a very good herbicidal activity is given at values of at least 85)”.

With `CC(C)(F)c1nc(N)nc(Nc2c(F)ccc3c2OC=CO3)n1` [Example 45], the pest or weed control at 125 g/ha in the assay on AMARE is at least 85%. The herbicidal activity result with ABUTH (125 g/ha) is “very good (a very good herbicidal activity is given at values of at least 85)”.

Consider `CC(C)(F)c1nc(N)nc(Nc2c(Cl)ccc3c2CCC3)n1` [Example 47], for which the herbicidal activity entry in the assay with ECHCG (250 g/ha) and in the assay with ABUTH (250 g/ha) was “good (a good herbicidal activity is given at values of at least 70)” throughout.
